In data set [1] the test system is flare and wheal suppression. Particulars: children aged 6–11 years; cited from earlier work.
The test system of data set [2] is porcine liver esterase (PLE). Briefly: Hydrolysis of prodrug in porcine liver esterase (PLE). It is filed as in vitro ADME. The settings on record: for first-order rate constant (kobs): during 6 h; for half-life at 0.25 mg/mL (LCZ 2HCl Eq.): pig, porcine liver esterase (PLE) solution, 10% DMSO, 37 °C, read-out: T1/2 (time required for 50% degradation of prodrug) (converted). As to the method: The ester bond cleavage assay was adapted from reference, with minor modifications, and carried out using PLE to evaluate the hydrolytic ratio (n = 3). […] At 0, 1, 2, 4, 6 and 24 h, the aliquot (100 μL) was collected using a 28 G syringe, and then immediately diluted 10-fold with a solvent composed of Acetonitrile:DW = 90:10 (v/v) to stop enzymatic action. The elution was replenished with an equal concentration and volume of fresh esterase solution. The diluted samples were filtered through a double 0.45 μm PTFE syringe filter. The filtrates were analyzed for their prodrug and LCZ content by HPLC to determine the conversion of the prodrug to LCZ.
(§1) Esterase, plasma hydrolysis and chemical stability studies were performed using the HPLC method. The HPLC equipment used was Infinity 1260 (Agilent, CA) fitted with a quaternary pump, an autosampler, a UV detector set at a wavelength of 230 nm and a column compartment maintained at 20 °C. The sample was eluted from a Fortis C18 (150 × 4.6 mm, 5 μm particle size) (Fortis, Neston, UK) analytical column using Acetonitrile:distilled water:sulfuric acid (90:9.6:0.4, v/v). The mobile phase was pumped isocratically at a flow rate of 1 mL/min with a 20 μL injection volume.

A short description of data set [3]: Hydrolysis of prodrugs in rat plasma. The format is in vitro ADME. The settings on record: 37 °C, during 6 h. As to the method: First, 100 μL of stock solution was added to 3.9 mL of heparinized rat plasma (n = 3). The samples were incubated at 37 °C in a shaking chamber (100 rpm). At 0, 1, 2, 4, 6 and 24 h, the aliquot (100 μL) was collected, and then immediately diluted 10-fold with a solvent composed of Acetonitrile:DW = 90:10 (v/v) to precipitate the protein. An equal volume of fresh rat plasma was replenished after each sampling. The samples were centrifuged at 5000 rpm for 10 min and the supernatants were filtered through a double 0.45 μm PTFE syringe filter. The filtrates were analyzed for their prodrug and LCZ content by HPLC to determine the conversion of the prodrug to LCZ.
as §1

Each structure is given as a SMILES string. Read-outs that look alike come from different tables or passages of the source.

As to `O=C(O)COCCN1CCN([C@H](c2ccccc2)c2ccc(Cl)cc2)CC1` [LCZ, Levocetirizine], in data set [1], the “EC50 for flare suppression” value is 1.4 ± 0.1 ng/mL and the “EC50 for wheal suppression” value is 16.1 ± 2.2 ng/mL.

Regarding `CCCCCCCCCCOC(=O)COCCN1CCN([C@@H](c2ccccc2)c2ccc(Cl)cc2)CC1` [LCZ-D, Levocetirizine decanoate], the “first-order rate constant (kobs)” value in data set [2] (PLE 0.2 units/mL) is 0.201 h⁻¹; in data set [2] (PLE 0.5 units/mL) it was 0.253 h⁻¹; in data set [2] (PLE 2.0 units/mL), 0.580 h⁻¹; in data set [3], 0.229 h⁻¹. In addition, the half-life at 0.25 mg/mL (LCZ 2HCl Eq.) in data set [2] (PLE 0.2 unit/mL) is 4 h; in data set [2] (PLE 0.5 unit/mL), 3 h; in data set [2] (PLE 2.0 unit/mL), approximately 1 h.

In the case of `CCCCCCCCCCCCOC(=O)COCCN1CCN([C@@H](c2ccccc2)c2ccc(Cl)cc2)CC1` [LCZ-L, Levocetirizine laurate], the “first-order rate constant (kobs)” value in data set [2] (PLE 0.2 units/mL) came out at 0.127 h⁻¹; in data set [2] (PLE 0.5 units/mL), 0.165 h⁻¹; in data set [2] (PLE 2.0 units/mL) it was 0.498 h⁻¹; in data set [3] it was 0.157 h⁻¹. In addition, the half-life at 0.25 mg/mL (LCZ 2HCl Eq.) in data set [2] (PLE 0.2 unit/mL) was 5 h; in data set [2] (PLE 0.5 unit/mL), 4 h; in data set [2] (PLE 2.0 unit/mL) it was approximately 2 h.
